US10227344B2, “CK2 inhibitors, compositions and methods thereof” (Polaris Pharmaceuticals, Inc., priority 2016, dated 2019)

Key:
Type in all cases: cell-based
[1] = tested on: A549; experiment: Cancer cell panel, cell viability (resazurin): NSCLC, A549; conditions: Homo sapiens, 72 hours, single agent, read-out: Example 3 IC50
[2] = tested on: ZR-75-1; experiment: Cancer cell panel, cell viability (resazurin): Breast, ZR-75-1; conditions: Homo sapiens; ZR-75-1 (Breast), 72 hours, single agent; read-out: Example 3 IC50
Description: (§1) Cells were plated in 96-well plates and treated for 72 hours with a serially diluted CK2 inhibitor or anti-cancer drug or their combination. The suspension cell lines were treated right after plating, while the adherent cells were allowed to attach overnight prior to the start of the treatment.
(§2) Cell viability was determined by adding resazurin to cell cultures and measuring fluorescence with a plate reader. Relative cell viability was calculated by dividing the cell viability signal from a test sample by that of a non-treated control. […] Bliss Independence and Highest Single Agent models were used to determine if there is synergy, additivity or antagonism between the CK2 inhibitor and an anti-cancer drug.

[3] = tested on: 786-O; experiment: Cancer cell panel, cell viability (resazurin): Renal, 786-O; conditions: Homo sapiens, 786-0; 786-O (Renal), 72 hours, single agent; read-out: Example 3 IC50
Description: as §1, §2

[4] = tested on: SkBr-3; experiment: Cancer cell panel, cell viability (resazurin): Breast, SkBr-3; conditions: Homo sapiens, SK-BR-3; SkBr-3 (Breast), 72 hours, single agent; read-out: Example 3 IC50
[5] = tested on: PC3; experiment: Cancer cell panel, cell viability (resazurin): Prostate, PC3; conditions: Homo sapiens, PC-3, 72 hours, single agent, read-out: Example 3 IC50
[6] = tested on: WM-115; experiment: Cancer cell panel, cell viability (resazurin): Melanoma, WM-115; conditions: Homo sapiens; WM-115 (Melanoma), 72 hours, single agent; read-out: Example 3 IC50
[7] = tested on: SKOV-3; experiment: Cancer cell panel, cell viability (resazurin): Ovarian, SKOV-3; conditions: Homo sapiens, SK-OV-3; SKOV-3 (Ovarian), 72 hours, single agent; read-out: Example 3 IC50
[8] = tested on: MOLT4; experiment: Cancer cell panel, cell viability (resazurin): Leukemia, MOLT4; conditions: Homo sapiens, MOLT-4, 72 hours, single agent, read-out: Example 3 IC50
[9] = tested on: HT29; experiment: Cancer cell panel, cell viability (resazurin): Colon, HT29; conditions: Homo sapiens, HT-29, 72 hours, single agent, read-out: Example 3 IC50
[10] = tested on: MCF7; experiment: Cancer cell panel, cell viability (resazurin): Breast, MCF7; conditions: Homo sapiens, 72 hours, single agent, read-out: Example 3 IC50
Description: as §1, §2

[11] = tested on: MDA-MB-231; experiment: Cancer cell panel, cell viability (resazurin): Breast, MDA-MB-231; conditions: Homo sapiens; MDA-MB-231 (Breast), 72 hours, single agent; read-out: Example 3 IC50
Description: as §1, §2

[12] = tested on: ACHN; experiment: Cancer cell panel, cell viability (resazurin): Renal, ACHN; conditions: Homo sapiens, 72 hours, single agent, read-out: Example 3 IC50
Description: as §1, §2

[13] = tested on: H460; experiment: Cancer cell panel, cell viability (resazurin): NSCLC, H460; conditions: Homo sapiens, NCI-H460, 72 hours, single agent, read-out: Example 3 IC50
[14] = tested on: SK-MEL-3; experiment: Cancer cell panel, cell viability (resazurin): Melanoma, SK-MEL-3; conditions: Homo sapiens, SK-MEL3; SK-MEL-3 (Melanoma), 72 hours, single agent; read-out: Example 3 IC50
[15] = tested on: H1299; experiment: Cancer cell panel, cell viability (resazurin): NSCLC, H1299; conditions: Homo sapiens, NCI-H1299, 72 hours, single agent, read-out: Example 3 IC50
[16] = tested on: Daudi; experiment: Cancer cell panel, cell viability (resazurin): Burkitt's Lymphoma, Daudi; conditions: Homo sapiens, 72 hours, single agent, read-out: Example 3 IC50
[17] = tested on: MDA-MB-453; experiment: Cancer cell panel, cell viability (resazurin): Breast, MDA-MB-453; conditions: Homo sapiens; MDA-MB-453 (Breast), 72 hours, single agent; read-out: Example 3 IC50
[18] = tested on: Colo205; experiment: Cancer cell panel, cell viability (resazurin): Colon, Colo205; conditions: Homo sapiens, COLO 205, 72 hours, single agent, read-out: Example 3 IC50
[19] = tested on: Mia-Paca-2; experiment: Cancer cell panel, cell viability (resazurin): Pancreatic, Mia-Paca-2; conditions: Homo sapiens; Mia-Paca-2 (Pancreatic), 72 hours, single agent; read-out: Example 3 IC50

IC50 [1]: 1670 nM
IC50 [2]: 323 nM
IC50 [3]: 2620 nM
IC50 [4]: 228 nM
IC50 [5]: 112 nM
IC50 [6]: 286 nM
IC50 [7]: 1380 nM
IC50 [8]: 420 nM
IC50 [9]: 197 nM
IC50 [10]: 1820 nM
IC50 [11]: 567 nM
IC50 [12]: 409 nM
IC50 [13]: 350 nM
IC50 [14]: 429 nM
IC50 [15]: 246 nM
IC50 [16]: 217 nM
IC50 [17]: 148 nM
IC50 [18]: 1120 nM
IC50 [19]: 253 nM
Structure (SMILES): C[S@+]([O-])Cc1cc(Nc2cc(NC3CC3)n3ncc(C#N)c3n2)ccc1Cl [Example 3, (S)(+)-5-((4-Chloro-3-((methylsulfinyl)methyl)phenyl)amino)-7-(cyclopropylamino)pyrazolo[1,5-a]pyrimidine-3-carbonitrile]
